Laboratory results reported in patent US7807368B2, “Cyclin-dependent kinase inhibitors as targets for opiod growth factor treatment” (priority 2006, dated 2010).
“Also recorded” adds a separate entry of the source.

Assays:
Format in all cases: cell-based, human
[1] = test system: p16; experiment: Western blot of p16 in CAL-27 cells; details: synchronized CAL-27 cells, 9 h
Method: (§1) The SCC-1 (UM-SCC-1) cell line was obtained from the University of Michigan Cancer Research Laboratory, and CAL-27 and SCC-4 cells were obtained from the American Type Culture Collection (Manassas, Va.). SCC-1 and CAL-27 cells were cultured in DMEM media, whereas SCC-4 cells were grown in 1:1 Hams F-12 DMEM media. All media was supplemented with 10% fetal bovine serum (HyClone, Logan, Utah), 1.2% sodium bicarbonate, and 5000 units/ml penicillin, 5 μg/ml streptomycin and 10 μg/ml neomycin. OGF was purchased from Sigma-Aldrich (St. Louis, Mo.), dissolved in sterile water, and used at a final concentration of 10^−6 M.
Synchronized cells (˜2×10^6) from each treatment were solubilized in 200 μl RIPA buffer (1×PBS, 10 μM IGEPAL, 1 mg/ml SDS, 5 mg/ml deoxycholic acid), containing protease and phosphatase inhibitors (2 μg/ml aprotinin, 3 mg/ml phenylmethyl sulfonyl fluoride (PMSF), 1 mM sodium orthovanidate, 1 μM okadaic acid). Total protein concentrations were measured using the DC protein assay kit (Bio-Rad Laboratories, Hercules, Calif.). Equal amounts of protein (40 μg) were subjected to 10% SDS-PAGE followed by transfer of proteins onto polyvinylidene difluoride (Millipore, Billerica, Mass.) using standard protocols. […]

[2] = test system: p21/Cdk2 complex; experiment: Cdk2 immunoprecipitation, p21/Cdk2 and cyclin E/Cdk2 complexes in BxPC-3 cells
Text: Cell extracts were subjected to immunoprecipitation using antibodies against Cdk2 and protein A beads. Immunoprecipitates were separated on a 15% SDSPAGE gel, and membrane blots probed with p21 antibodies (1:100), and developed using a chemiluminescence Western blotting detection system. Blots were reprobed with Cdk2 antibody (1:200).

[3] = test system: SCC-4 cells; experiment: Growth curves of SCC-4 cells transfected with p16 siRNA or negative control siRNA
Method: as §1
The p16-targeted siRNAs (antisense:5′ […]-3′; sense (SEQ ID NO:5): 5′ […]-3′(SEQ ID NO:6) were obtained as ready-annealed, purified duplex probes (Invitrogen, Carlsbad, Calif.). For transfection, 2×10^5 cells per well were seeded in 6-well plates containing 1 ml of serum-free media without antibiotics. In each well, 20 nM of p16-siRNA or control siRNA solutions in serum-free media were added. Cells were incubated for 4 h at 37° C. prior to the addition of OGF. Cultures were incubated for additional 20 h, and then 1 ml fresh complete media either lacking or containing OGF was added. At the indicated time points, cells were collected for growth curves or Western blotting. Three or more independent experiments were conducted. The control siRNAs were purchased from Ambion.

[4] = test system: p21; experiment: Western blot of p21, p27 and Cdk2 in BxPC-3 cells
Method: Synchronized cells (2×10^6) from each treatment were solubilized in 200 μl RIPA buffer (1×PBS, 10 μM IGEPAL, 1 mg/ml SDS, 5 mg/ml deoxycholic acid), containing protease and phosphatase inhibitors (2 μg/ml aprotinin, 3 mg/ml phenylmethyl sulfonyl fluoride, 1 mM sodium orthovanidate, 1 μM okadaic acid). Total protein concentrations were measured using the DC protein assay kit (Bio-Rad Laboratories, Hercules, Calif.). Equal amounts of protein (40 μg) were subjected to 10% SDS-PAGE followed by transfer of proteins onto polyvinylidene difluoride (Millipore, Billerica, Mass.) using standard protocols.
The following antibodies were purchased from commercial sources: phospho-Rb (Ser795), phospho-Rb (Ser807/811) (Cell Signaling Technology, Beverly, Mass.); Cdk2, p57 (Santa Cruz Biotechnology, Santa Cruz, Calif.); p21, p27, total Rb (BD PharMingen, San Diego, Calif.); β-actin (Clone AC-15, Sigma-Aldrich).
Membranes were probed with secondary anti-rabbit or anti-mouse horseradish peroxidase-conjugated antibodies (GE Healthcare-Amersham Biosciences, Piscataway, N.J.), and developed using a chemiluminescence Western blotting detection system.
To determine equal loading of total protein samples, blots were re-probed with monoclonal antibody against β-actin at a dilution of 1:2000. If necessary, membranes were processed in stripping buffer (62.5 mM Tris-HCI and 100 mM β-mercaptoethanol/2% SDS, pH 6.7) at 50° C. before being re-probed.
To quantify expression levels or kinase activity, the optical density of each band was determined by densitometry and analyzed by QuickOne (Bio-Rad Laboratories). Each value was normalized to β-actin from the same blot. To report the changes due to OGF treatment, we calculated the fold increase by dividing the normalized value from the OGF treated samples by the normalized value of control samples at each time point; thus, increases due to OGF have values greater than one, and decreases due to OGF have values less than one. For all Western blot analyses, 3 or more independent experiments were performed.
The p21-targeted siRNAs were obtained from Santa Cruz Biotechnology, and negative control siRNAs were purchased from Ambion (Ambion, Inc., Austin, Tex.). For transfection, 2×10^5 cells per well were seeded in 6-well plates containing 1 ml of media without antibiotics. For each well, 1 μl of siRNA stock (20 μM) was mixed with 175 μl of serum-free media. Two μl of Oligofectamine reagent (Invitrogen, Carlsbad, Calif.) was added to prewashed cells in each well, making the final concentration for siRNA approximately 20 nM. Cells were incubated for 4 hours at 37° C. prior to the addition of OGF. Eighteen hours later, 1 ml fresh complete media with or without OGF was added to the cultures; media and OGF were replaced daily. At the indicated time points, cells were collected for growth curves or Western blotting.

[Met^5]-enkephalin [OGF]
p16 expression relative to controls [1]: increased p16 expression | levels of the p21/Cdk2 complex ([2]; 3, 6, 9, 12, 15, 18, and 21 hours, significant (p<0.05) at 15 hours): elevated at all time points; also recorded: increase at 9, 12, 15, 18, and 21 hours | level of the cyclin E/Cdk2 complex ([2]; after treatment with OGF): no change | decrease of growth ([3]; SCC-4 cells transfected with negative control siRNAs, 96 h): 43% | effect on growth of cells lacking p16 expression ([3]; SCC-4 cells transfected with p16 siRNAs): no effect | expression of the cell cycle inhibitor p27 ([4]; OGF treatment): no significant effect | expression of Cdk2 protein ([4]; following OGF exposure): did not change | p21 expression ([4]; synchronized BxPC-3 cells, 9 hours, 10^-6 M OGF, 10^-5 M naloxone): significantly upregulated; also recorded: significantly elevated
